Experimental data as given in patent publication US20230061319A1, “METHODS OF TREATING TUMORS” (CoImmune, Inc., priority 2020, published 2023).

Tests used:
[1] = system: healthy donor PBMC T cells; test: Two-way MLR of HLA-mismatched healthy donor PBMCs with mRCC patient plasma with or without everolimus; assay type: cell-based, human; conditions: MLR 7 days, 2% mRCC patient plasma
Method: PBMCs and DCs were thawed and washed in PBS (Lonza) prior to counting. Post maturation electroporated monocyte-derived dendritic cells (PME-CD40L) were generated from healthy donors as described in DeBenedette MA. et al., J Immunol. 181(8):5296-5305 (2008) (incorporated herein by reference in its entirety), and were co-electroporated with RNA encoding the pp65 CMV protein and RNA encoding CD40L. Viable cell counts were performed using BD TruCount Absolute Counting Tubes and propidium iodide (BD Biosciences) by flow cytometry. PBMCs and DCs were re-suspended in X-Vivo15 (with gentamicin and phenol red) (Lonza) containing 10% normal human AB serum (Valley biomedical). […] Frozen PBMC vials from 2 HLA-mismatched healthy donors were thawed and counted. […] Purified Mouse anti-human CD3 (clone OKT3, BD Biosciences) was used to stimulate healthy donor PBMCs in culture.
Given the observation that patients enrolled in the ADAPT study who received everolimus as 2nd line therapy after receiving DC therapy had better clinical outcomes, the concept that everolimus may reverse the immune suppressive activity of mRCC patient plasma and augment T cell responses was investigated. HLA-mismatched healthy donor PBMCs were mixed and cultured for 7 days in the presence of 2% mRCC patient plasma and with or without 20 ng of everolimus added on day 0, and the frequency of CD28^+ memory T cells was determined. […] However, this restoration was not statistically significant (p<0.087) when the suppressive activity of plasma samples collected from six individual mRCC patients was tested (FIG. 17C). In contrast, an increase in the frequency of proliferating CD28^-CD4 T cells was […] with plasma addition, which could be reversed with the addition of everolimus (FIG. 17D). A similar pattern was detected for CD8 T cells (a decrease in the frequency of proliferating CD28^+ CD8 T cells (FIG. 17E) and increase in the frequency of proliferating CD28^-CD8 T cells (FIG. 17F)) in the presence of plasma, which the addition of everolimus could reverse. […] To expand the understating whereby everolimus can reduce the immune suppressive impact of mRCC, patient plasma PBMCs were stimulated with autologous DCs presenting the pp65 CMV antigen. Healthy donor PBMCs and autologous DCs were mixed and cultured for 6 days in the presence of 2% mRCC patient plasma and with or without 20 ng of everolimus added on day 0. A small but reproducible frequency of proliferating CD28^+ CD4 T cells was induced, but very few CD28^-CD4 T cells (FIG. 18A left panel), which is unlike the CD4 T cell response seen in the MLR. […] A low frequency of proliferating CD28^- CD4 T cells was detected, and everolimus has little impact on the frequency of these cells (FIG. 18D).
Given the observation that plasma suppression selectively impacts the frequency of CD28^+ T cells and everolimus mediates a reduced suppression of this memory phenotype, the CD28^+ T cell subset was further characterized. HLA-mismatched healthy donor PBMCs were mixed and cultured for 7 days in the presence of 2% mRCC patient plasma and with or without 20 ng of everolimus added on day 0. […] Both the expression of CD25 and CD28 receptors on T cells are critical for full differentiation of memory T cells.
To understand the ability of everolimus to restore the frequency of CD25^+CD28^+ T cells, the expression of both CD25 and CD28 on CD8 T cells stimulated in the MLR or with autologous DCs in the presence of mRCC patient plasma was measured by the geometric mean fluorescence intensity (MFI).

[2] = system: MART-1 specific CTLs; test: MART-1 specific CTL effector function (IFN-γ, TNF-α, IL-2 secretion, CD107a expression); assay type: cell-based, human; conditions: at the higher concentrations tested; compared to untreated CTLs
Method: PME-CD40L DCs derived from HLA-A2-positive donors and transfected with antigen-encoding mRNAs were co-cultured with purified CD8^+ T cells. All co-cultures were performed in R-10 media. CD8^+ T cells were purified using the CD8+ T Cell Negative Selection Kit II (Miltenyi Biotec) from non-adherent cells harvested from the monocyte adherence step. The CD8^+ cells were mixed with DCs at a 10:1 ratio and incubated in the presence of 0.2 µg/mL IL-2 and 10 ng/mL IL-7 (R&D Systems). DC/T cell co-cultures were re-stimulated on day 7 and supplemented with 20 units/mL IL-2 plus 10 ng/mL IL-7. Induction of primary immune responses to MART-1 and memory/recall responses to CMV pp65 were measured on day 10.
To identify antigen-specific T cell responses and the phenotype of the antigen specific cells, T cells were harvested on day 10 post-stimulation and incubated with peptide-pulsed T2 target cells at a ratio of 10:1 for 4 hour with Brefeldin A, Monensin (BD Biosciences) and CD107a PE-Cy5. […] After 4 hours of co-culture, responder T cells were stained for 10 minutes with the requisite peptide/pentamer reagent, then washed once and re-stained with CD8-Eflour605, CD45RA-FITC, and CD28-APC. Cells were then washed in PBS and stained with Aquadye (BD Biosciences) for analysis of viability. Labeled cells were then fixed and permeabilized in Fixation/Permeabilization solution (eBiosciences). […]

[3] = than rapamycin (sirolimus); cited from earlier work
[4] = 20 ng everolimus, statistically significant, six plasma samples

CO[C@H]1C[C@@H]2CC[C@@H](C)[C@@](O)(O2)C(=O)C(=O)N2CCCC[C@H]2C(=O)O[C@H]([C@H](C)C[C@@H]2CC[C@@H](OCCO)[C@H](OC)C2)CC(=O)[C@H](C)/C=C(\C)[C@@H](O)[C@@H](OC)C(=O)[C@H](C)C[C@H](C)/C=C/C=C/C=C/1C [everolimus]
expression of CD25 on CD8 T cells (MFI) ([1]; 20 ng everolimus): statistically significant increase | expression of CD28 on CD8 T cells (MFI) ([1]; 20 ng everolimus): statistically significant increase | plasma-induced change in frequency of proliferating CD28- CD4 T cells ([1]; 20 ng everolimus on day 0): reversed | frequency of proliferating CD28+ CD4 T cells reduced by mRCC patient plasma ([1]; 20 ng everolimus on day 0, not statistically significant (p<0.087), six plasma samples): partially restored | frequency of CD25+CD28- CD8 T cells among CD25+ CD8 T cells ([1]; 20 ng everolimus, p< 0.001): no longer represented the dominant population | frequency of CD25+CD28+ CD8 T cells ([1]; 20 ng everolimus, p< 0.0061): partial restoration | frequency of CD25+CD28+ CD4 T cells ([1]; 20 ng everolimus, p< 0.045): partial restoration | plasma-induced decrease in frequency of proliferating CD28+ CD8 T cells [1, 4]: reverse | plasma-induced increase in frequency of proliferating CD28- CD8 T cells [1, 4]: reverse | numbers of MART-1+ CTL secreting a cytokine or expressing CD107a [2]: increased | side effects [3]: fewer
